Experimental data from ChEMBL document CHEMBL2346515, “Discovery of 4-alkylamino-7-aryl-3-cyanoquinoline LRRK2 kinase inhibitors” (Bioorg Med Chem Lett, 2013).

Columns and labels:
[1] = molecular target: Receptor-interacting serine/threonine-protein kinase 2 (Homo sapiens) (UniProt O43353); test: Inhibition of RIPK2 (unknown origin) at 10 uM by single point assay
[2] = molecular target: Proto-oncogene tyrosine-protein kinase receptor Ret (Homo sapiens) (UniProt P07949); test: Inhibition of RET (unknown origin) at 10 uM by single point assay
[3] = molecular target: PI3-kinase p110-alpha/p85-alpha (Homo sapiens) (UniProt P27986+P42336); test: Inhibition of PIK3CA/PIK3R1 (unknown origin) at 10 uM by single point assay; type: protein-complex assay
[4] = molecular target: Serine/threonine-protein kinase MARK2 (Homo sapiens) (UniProt Q7KZI7); test: Inhibition of MARK2 (unknown origin) at 10 uM by single point assay
[5] = molecular target: T1, Mitogen-activated protein kinase kinase kinase 7 (Homo sapiens) (UniProt O43318); test: Inhibition of MAP3K7 (unknown origin) at 10 uM by single point assay
T1 sequence (whole entry): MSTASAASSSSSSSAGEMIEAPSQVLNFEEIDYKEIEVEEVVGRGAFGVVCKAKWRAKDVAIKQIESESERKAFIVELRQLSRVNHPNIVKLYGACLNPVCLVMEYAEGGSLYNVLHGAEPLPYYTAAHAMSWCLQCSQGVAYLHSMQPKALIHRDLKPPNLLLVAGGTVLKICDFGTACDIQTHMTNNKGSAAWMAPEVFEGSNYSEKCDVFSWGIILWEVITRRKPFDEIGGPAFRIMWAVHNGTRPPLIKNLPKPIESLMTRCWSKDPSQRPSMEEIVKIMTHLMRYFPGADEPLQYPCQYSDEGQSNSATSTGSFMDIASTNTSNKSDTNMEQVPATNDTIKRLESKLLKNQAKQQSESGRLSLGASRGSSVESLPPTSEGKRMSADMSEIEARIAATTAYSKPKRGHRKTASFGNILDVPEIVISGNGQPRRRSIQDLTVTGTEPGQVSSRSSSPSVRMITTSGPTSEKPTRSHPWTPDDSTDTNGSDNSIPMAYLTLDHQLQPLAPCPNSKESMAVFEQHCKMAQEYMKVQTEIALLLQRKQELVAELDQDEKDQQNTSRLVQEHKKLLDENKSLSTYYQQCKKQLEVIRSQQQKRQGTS

[6] = molecular target: Tyrosine-protein kinase JAK1 (Homo sapiens) (UniProt P23458); test: Inhibition of JAK1 (unknown origin) at 10 uM by single point assay
Sequence of Tyrosine-protein kinase JAK1 (Homo sapiens) (P23458 whole entry): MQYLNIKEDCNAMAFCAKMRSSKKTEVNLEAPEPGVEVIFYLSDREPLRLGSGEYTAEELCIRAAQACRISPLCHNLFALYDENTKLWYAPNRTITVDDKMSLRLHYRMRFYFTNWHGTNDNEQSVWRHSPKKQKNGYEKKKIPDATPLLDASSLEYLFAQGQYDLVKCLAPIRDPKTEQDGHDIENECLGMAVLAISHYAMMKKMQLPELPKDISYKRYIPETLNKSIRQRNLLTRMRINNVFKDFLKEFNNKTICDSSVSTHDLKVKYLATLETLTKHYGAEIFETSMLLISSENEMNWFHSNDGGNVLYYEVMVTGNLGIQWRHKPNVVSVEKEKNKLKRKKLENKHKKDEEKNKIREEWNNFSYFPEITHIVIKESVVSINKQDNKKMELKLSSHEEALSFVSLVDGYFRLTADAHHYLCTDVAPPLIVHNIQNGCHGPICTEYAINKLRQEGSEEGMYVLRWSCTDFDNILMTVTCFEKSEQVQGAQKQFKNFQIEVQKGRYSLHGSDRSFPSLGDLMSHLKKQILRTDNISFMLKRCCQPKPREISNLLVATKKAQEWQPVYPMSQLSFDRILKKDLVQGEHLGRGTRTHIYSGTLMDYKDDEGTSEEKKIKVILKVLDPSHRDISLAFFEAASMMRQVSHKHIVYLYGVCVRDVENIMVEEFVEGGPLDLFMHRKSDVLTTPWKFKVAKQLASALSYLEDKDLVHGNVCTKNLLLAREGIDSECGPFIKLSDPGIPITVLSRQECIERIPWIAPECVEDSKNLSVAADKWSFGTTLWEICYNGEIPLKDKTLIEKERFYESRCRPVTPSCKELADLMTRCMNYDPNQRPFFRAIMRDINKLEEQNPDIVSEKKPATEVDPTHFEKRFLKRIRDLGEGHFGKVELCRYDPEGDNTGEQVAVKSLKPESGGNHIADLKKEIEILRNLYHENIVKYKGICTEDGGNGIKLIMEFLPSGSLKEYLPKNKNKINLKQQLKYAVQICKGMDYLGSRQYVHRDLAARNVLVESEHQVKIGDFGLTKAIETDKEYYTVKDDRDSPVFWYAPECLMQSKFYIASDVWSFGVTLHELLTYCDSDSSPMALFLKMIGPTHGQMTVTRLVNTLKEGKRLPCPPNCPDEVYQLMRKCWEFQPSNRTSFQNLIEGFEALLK

[7] = molecular target: Receptor-type tyrosine-protein kinase FLT3 (Homo sapiens) (UniProt P36888); test: Inhibition of FLT3 (unknown origin) at 10 uM by single point assay
[8] = molecular target: Receptor tyrosine-protein kinase erbB-4 (Homo sapiens) (UniProt Q15303); test: Inhibition of ErbB4 (unknown origin) at 10 uM by single point assay
Sequence of Receptor tyrosine-protein kinase erbB-4 (Homo sapiens) (Q15303 whole entry): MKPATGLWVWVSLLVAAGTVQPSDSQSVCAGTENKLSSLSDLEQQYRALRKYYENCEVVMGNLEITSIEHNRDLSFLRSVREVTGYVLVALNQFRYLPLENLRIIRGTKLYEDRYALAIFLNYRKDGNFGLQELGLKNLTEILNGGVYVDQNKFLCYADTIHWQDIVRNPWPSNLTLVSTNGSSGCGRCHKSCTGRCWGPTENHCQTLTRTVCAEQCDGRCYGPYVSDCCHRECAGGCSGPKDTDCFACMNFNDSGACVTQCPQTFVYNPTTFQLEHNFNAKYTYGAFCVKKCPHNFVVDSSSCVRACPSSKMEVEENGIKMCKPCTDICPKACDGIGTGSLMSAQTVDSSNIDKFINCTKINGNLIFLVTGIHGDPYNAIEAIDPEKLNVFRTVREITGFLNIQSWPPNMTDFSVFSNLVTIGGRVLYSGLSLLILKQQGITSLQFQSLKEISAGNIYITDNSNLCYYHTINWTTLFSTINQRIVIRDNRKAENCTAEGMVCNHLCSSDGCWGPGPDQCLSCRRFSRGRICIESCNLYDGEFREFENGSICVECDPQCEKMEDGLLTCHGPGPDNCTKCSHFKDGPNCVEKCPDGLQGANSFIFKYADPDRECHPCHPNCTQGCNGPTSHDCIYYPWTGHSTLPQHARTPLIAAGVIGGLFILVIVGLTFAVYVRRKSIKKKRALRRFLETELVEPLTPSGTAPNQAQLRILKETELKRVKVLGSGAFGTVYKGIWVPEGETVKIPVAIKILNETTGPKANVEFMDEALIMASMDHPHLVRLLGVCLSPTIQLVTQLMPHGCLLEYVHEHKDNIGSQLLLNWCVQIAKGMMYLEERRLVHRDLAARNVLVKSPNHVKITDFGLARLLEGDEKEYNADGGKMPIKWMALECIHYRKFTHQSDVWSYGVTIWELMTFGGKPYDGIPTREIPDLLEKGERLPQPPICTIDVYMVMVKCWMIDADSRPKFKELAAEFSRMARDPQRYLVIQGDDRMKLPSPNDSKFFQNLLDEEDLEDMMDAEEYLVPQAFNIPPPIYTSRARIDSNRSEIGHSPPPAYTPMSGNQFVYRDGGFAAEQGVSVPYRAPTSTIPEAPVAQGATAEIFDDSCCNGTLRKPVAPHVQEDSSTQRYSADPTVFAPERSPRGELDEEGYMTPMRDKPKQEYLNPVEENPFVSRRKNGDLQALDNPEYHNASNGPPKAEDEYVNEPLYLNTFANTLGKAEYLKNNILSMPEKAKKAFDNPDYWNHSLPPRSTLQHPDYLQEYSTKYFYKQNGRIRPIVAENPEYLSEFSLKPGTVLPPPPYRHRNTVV

[9] = molecular target: Dual specificity tyrosine-phosphorylation-regulated kinase 1B (Homo sapiens) (UniProt Q9Y463); test: Inhibition of DYRK1B (unknown origin) at 10 uM by single point assay
Sequence of Dual specificity tyrosine-phosphorylation-regulated kinase 1B (Homo sapiens) (Q9Y463 whole entry, looked up): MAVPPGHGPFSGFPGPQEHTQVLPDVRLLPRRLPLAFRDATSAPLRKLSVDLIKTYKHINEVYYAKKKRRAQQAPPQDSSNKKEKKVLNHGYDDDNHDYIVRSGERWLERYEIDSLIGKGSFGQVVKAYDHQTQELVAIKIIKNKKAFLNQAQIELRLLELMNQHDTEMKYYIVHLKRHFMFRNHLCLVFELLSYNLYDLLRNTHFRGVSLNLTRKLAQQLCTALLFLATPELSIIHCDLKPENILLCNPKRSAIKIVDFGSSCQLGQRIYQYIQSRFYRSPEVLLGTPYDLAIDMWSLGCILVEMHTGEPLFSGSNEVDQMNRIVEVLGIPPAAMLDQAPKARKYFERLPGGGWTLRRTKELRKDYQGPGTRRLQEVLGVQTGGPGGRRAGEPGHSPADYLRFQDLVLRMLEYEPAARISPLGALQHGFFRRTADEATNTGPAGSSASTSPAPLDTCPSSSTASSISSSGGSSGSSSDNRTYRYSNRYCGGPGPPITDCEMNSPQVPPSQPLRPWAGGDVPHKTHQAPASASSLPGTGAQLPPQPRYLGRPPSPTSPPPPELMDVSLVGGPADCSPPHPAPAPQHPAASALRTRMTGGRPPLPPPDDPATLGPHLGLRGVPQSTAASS

[10] = molecular target: Macrophage colony-stimulating factor 1 receptor (Homo sapiens) (UniProt P07333); test: Inhibition of CSF1R (unknown origin) at 10 uM by single point assay
Sequence of Macrophage colony-stimulating factor 1 receptor (Homo sapiens) (P07333 whole entry): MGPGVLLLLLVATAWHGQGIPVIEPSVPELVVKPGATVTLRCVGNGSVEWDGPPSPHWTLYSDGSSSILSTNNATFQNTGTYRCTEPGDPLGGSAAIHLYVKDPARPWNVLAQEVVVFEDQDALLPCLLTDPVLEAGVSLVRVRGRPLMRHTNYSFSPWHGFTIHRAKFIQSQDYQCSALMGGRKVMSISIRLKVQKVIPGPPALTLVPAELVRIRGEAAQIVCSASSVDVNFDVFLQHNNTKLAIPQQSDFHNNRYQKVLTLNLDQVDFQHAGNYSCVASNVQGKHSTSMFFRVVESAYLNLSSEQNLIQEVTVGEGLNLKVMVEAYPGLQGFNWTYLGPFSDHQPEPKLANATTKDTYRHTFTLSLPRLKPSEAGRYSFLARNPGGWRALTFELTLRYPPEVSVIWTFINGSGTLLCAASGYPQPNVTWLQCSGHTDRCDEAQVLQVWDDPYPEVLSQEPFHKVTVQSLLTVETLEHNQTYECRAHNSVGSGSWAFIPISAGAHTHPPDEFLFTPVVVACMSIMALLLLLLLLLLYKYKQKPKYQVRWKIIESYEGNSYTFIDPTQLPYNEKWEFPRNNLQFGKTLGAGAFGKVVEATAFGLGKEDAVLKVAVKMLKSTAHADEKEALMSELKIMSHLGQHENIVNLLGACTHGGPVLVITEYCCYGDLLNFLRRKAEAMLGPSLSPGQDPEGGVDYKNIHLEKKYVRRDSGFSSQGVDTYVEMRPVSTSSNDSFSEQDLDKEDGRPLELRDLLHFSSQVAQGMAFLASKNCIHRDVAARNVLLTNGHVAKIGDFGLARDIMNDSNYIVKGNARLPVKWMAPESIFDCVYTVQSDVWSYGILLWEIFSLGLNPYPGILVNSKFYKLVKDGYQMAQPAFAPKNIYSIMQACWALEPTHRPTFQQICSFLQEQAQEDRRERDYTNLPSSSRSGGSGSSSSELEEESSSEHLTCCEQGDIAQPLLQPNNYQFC

[11] = molecular target: Cyclin-dependent kinase 2/cyclin A (Homo sapiens) (UniProt P24941+P20248+P78396); test: Inhibition of CDK2/cyclin A (unknown origin) at 10 uM by single point assay; type: protein-complex assay
[12] = molecular target: Tyrosine-protein kinase ABL1 (Homo sapiens) (UniProt P00519); test: Inhibition of ABL1 (unknown origin) at 10 uM by single point assay
[13] = tested on: Brain; test: Drug uptake in brain of mouse expressing mouse LRRK2 G2019S mutant at 100 mg/kg, po; type: ADME, organism-based; parameters: dose 100 mg/kg, route oral; conditions: in vivo
[14] = tested on: Plasma; test: Plasma concentration in mouse expressing mouse LRRK2 G2019S mutant at 30 mg/kg, po; type: ADME, organism-based; parameters: dose 30 mg/kg, route oral; conditions: in vivo
[15] = tested on: Brain; test: Drug uptake in brain of mouse expressing mouse LRRK2 G2019S mutant at 30 mg/kg, po; type: ADME, organism-based; parameters: dose 30 mg/kg, route oral; conditions: in vivo
[16] = molecular target: Mitogen-activated protein kinase 10 (Homo sapiens) (UniProt P53779); test: Inhibition of MAPK10 (unknown origin) at 1 uM by single point assay
Sequence of Mitogen-activated protein kinase 10 (Homo sapiens) (P53779 whole entry): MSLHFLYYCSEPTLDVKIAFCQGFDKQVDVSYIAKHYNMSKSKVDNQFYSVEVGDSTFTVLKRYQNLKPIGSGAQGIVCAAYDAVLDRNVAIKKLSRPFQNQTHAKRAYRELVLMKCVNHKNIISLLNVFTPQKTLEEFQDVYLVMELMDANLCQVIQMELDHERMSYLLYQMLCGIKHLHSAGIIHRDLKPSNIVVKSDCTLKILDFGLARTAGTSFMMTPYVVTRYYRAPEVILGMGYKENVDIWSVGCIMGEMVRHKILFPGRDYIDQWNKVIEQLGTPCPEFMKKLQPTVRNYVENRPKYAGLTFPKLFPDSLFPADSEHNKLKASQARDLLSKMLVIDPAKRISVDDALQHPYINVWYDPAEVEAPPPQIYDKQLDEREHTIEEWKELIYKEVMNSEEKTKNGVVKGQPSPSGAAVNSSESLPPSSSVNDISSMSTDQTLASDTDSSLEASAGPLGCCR

Sequence of Receptor-interacting serine/threonine-protein kinase 2 (Homo sapiens) (O43353 whole entry): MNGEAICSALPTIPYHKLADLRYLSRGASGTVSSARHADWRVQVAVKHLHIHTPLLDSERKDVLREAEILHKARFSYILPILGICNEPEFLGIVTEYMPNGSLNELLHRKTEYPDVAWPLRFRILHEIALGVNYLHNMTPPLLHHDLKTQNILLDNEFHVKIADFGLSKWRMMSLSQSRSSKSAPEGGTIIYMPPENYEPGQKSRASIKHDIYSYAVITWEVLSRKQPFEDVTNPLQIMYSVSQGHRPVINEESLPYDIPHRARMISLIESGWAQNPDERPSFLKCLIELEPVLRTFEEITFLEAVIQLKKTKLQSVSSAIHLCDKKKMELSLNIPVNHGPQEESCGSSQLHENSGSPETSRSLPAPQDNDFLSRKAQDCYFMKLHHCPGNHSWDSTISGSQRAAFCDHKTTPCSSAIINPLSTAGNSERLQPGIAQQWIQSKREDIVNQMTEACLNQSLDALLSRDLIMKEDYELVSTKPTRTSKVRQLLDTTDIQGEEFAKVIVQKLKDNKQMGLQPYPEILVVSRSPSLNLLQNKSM

inhibition [1] [%] | inhibition [2] [%] | inhibition [3] [%] | inhibition [4] [%] | inhibition [5] [%] | inhibition [6] [%] | inhibition [7] [%] | inhibition [8] [%] | inhibition [9] [%] | inhibition [10] [%] | inhibition [11] [%] | inhibition [12] [%] | Drug uptake [13] [ng/mL] | Cp [14] [ng/mL] | Drug uptake [15] [ng/mL] | inhibition [16] [%] | Structure (SMILES)
56 | 12 | 13 | 40 | -5 | 4 | 44 | 7 | 24 | 39 | 0 | 30 | – | – | – | – | C[C@@H](Nc1c(C#N)cnc2cc(-c3ccc(-n4ccoc4=O)cc3)ccc12)C1CC1
– | – | – | – | – | – | – | – | – | – | – | – | 81.1 | 4.7 | 4 | 4 | CC(C)Nc1c(C#N)cnc2cc(-c3cnn(C)c3)ccc12
